Test results: patent US20250339399A1, “SUPRAMOLECULAR SELF-ASSEMBLY SYSTEM” (Beijing Creatron Institute of Pharmaceutical Research Co., …, priority 2022, published 2025)

test: not given; settings: cited from earlier work

Row | Structure (SMILES) | LogD7.4 or Log P
1 | Cc1c(C)c2c(c(C)c1O)CC[C@@](C)(CCC[C@H](C)CCC[C@H](C)CCCC(C)C)O2 [Vitamin E, vitamin E] | 10.50
2 | CC#CC(=O)N1CCC[C@H]1c1nc(-c2ccc(C(=O)Nc3ccccn3)cc2)c2c(N)nccn12 [Acalabrutinib, acalabrutinib] | 2.56
3 | COC1=CC(=O)C[C@@H](C)[C@]12Oc1c(Cl)c(OC)cc(OC)c1C2=O [Griseofulvin, griseofulvin] | 2.17

test: Guest molecule concentration after incubation in initial medium without polymer (Comparative Example 1); format: physicochemical; settings: 0.5 h; 37° C.; 0.1% SDS in pH 6.8 phosphate buffer
Outline: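 Dissolved guest content measured by HPLC of centrifuged supernatants (37° C., 13000 rpm, 5 min) sampled at 0.5 h, 3 h and 6 h. Incubation was polymer-free at 37° C.±0.5° C. in buffers of pH 2.0-7.4; nominal loading was set by maximum clinical dose.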

Row | Concentration of guest molecule measured after different incubated time [µg/mL] | Structure (SMILES)
4 | 35.6 | COC1=CC(=O)C[C@@H](C)[C@]12Oc1c(Cl)c(OC)cc(OC)c1C2=O [Griseofulvin, griseofulvin]

same assay, conditions: 0.5 h; 37° C.; pH 6.8 phosphate buffer

Row | Concentration of guest molecule measured after different incubated time [µg/mL] | Structure (SMILES)
5 | 20.9 | Cc1c(C)c2c(c(C)c1O)CC[C@@](C)(CCC[C@H](C)CCC[C@H](C)CCCC(C)C)O2 [Vitamin E, vitamin E]

same assay, conditions: 0.5 h; 37° C.; pH 7.4 phosphate buffer

Row | Concentration of guest molecule measured after different incubated time [µg/mL] | Structure (SMILES)
6 | 106.0 | CC#CC(=O)N1CCC[C@H]1c1nc(-c2ccc(C(=O)Nc3ccccn3)cc2)c2c(N)nccn12 [Acalabrutinib, acalabrutinib]

same assay, conditions: 3 h; 37° C.; 0.1% SDS in pH 6.8 phosphate buffer

Row | Concentration of guest molecule measured after different incubated time [µg/mL] | Structure (SMILES)
7 | 27.4 | COC1=CC(=O)C[C@@H](C)[C@]12Oc1c(Cl)c(OC)cc(OC)c1C2=O [Griseofulvin, griseofulvin]

same assay, conditions: 3 h; 37° C.; pH 6.8 phosphate buffer

Row | Concentration of guest molecule measured after different incubated time [µg/mL] | Structure (SMILES)
8 | 17.9 | Cc1c(C)c2c(c(C)c1O)CC[C@@](C)(CCC[C@H](C)CCC[C@H](C)CCCC(C)C)O2 [Vitamin E, vitamin E]

same assay, conditions: 3 h; 37° C.; pH 7.4 phosphate buffer

Row | Concentration of guest molecule measured after different incubated time [µg/mL] | Structure (SMILES)
9 | 87.6 | CC#CC(=O)N1CCC[C@H]1c1nc(-c2ccc(C(=O)Nc3ccccn3)cc2)c2c(N)nccn12 [Acalabrutinib, acalabrutinib]

same assay, conditions: 6 h; 37° C.; 0.1% SDS in pH 6.8 phosphate buffer

Row | Concentration of guest molecule measured after different incubated time [µg/mL] | Structure (SMILES)
10 | 24.1 | COC1=CC(=O)C[C@@H](C)[C@]12Oc1c(Cl)c(OC)cc(OC)c1C2=O [Griseofulvin, griseofulvin]

same assay, conditions: 6 h; 37° C.; pH 6.8 phosphate buffer

Row | Concentration of guest molecule measured after different incubated time [µg/mL] | Structure (SMILES)
11 | 11.9 | Cc1c(C)c2c(c(C)c1O)CC[C@@](C)(CCC[C@H](C)CCC[C@H](C)CCCC(C)C)O2 [Vitamin E, vitamin E]

same assay, conditions: 6 h; 37° C.; pH 7.4 phosphate buffer

Row | Concentration of guest molecule measured after different incubated time [µg/mL] | Structure (SMILES)
12 | 87.6 | CC#CC(=O)N1CCC[C@H]1c1nc(-c2ccc(C(=O)Nc3ccccn3)cc2)c2c(N)nccn12 [Acalabrutinib, acalabrutinib]

test: Binary supramolecular self-assembly systems of polymer and target: guest concentration over incubation time (Comparative Example 2); format: physicochemical; settings: binary system with 0.5% polymer 101; incubation 0.5 h
Experimental: Experiments were conducted according to the steps in Comparative Example 1, and quantitative analysis was carried out using the analytical method for each target to investigate the regulation ability […] stacking.

Row | Concentration of the target in the solution measured after different incubation time [µg/mL] | Structure (SMILES)
13 | 209.1 | CC#CC(=O)N1CCC[C@H]1c1nc(-c2ccc(C(=O)Nc3ccccn3)cc2)c2c(N)nccn12 [Acalabrutinib, acalabrutinib]
14 | 221.0 | COC1=CC(=O)C[C@@H](C)[C@]12Oc1c(Cl)c(OC)cc(OC)c1C2=O [Griseofulvin, griseofulvin]

same assay, conditions: binary system with 0.5% polymer 101; incubation 3 h

Row | Concentration of the target in the solution measured after different incubation time [µg/mL] | Structure (SMILES)
15 | 193.9 | CC#CC(=O)N1CCC[C@H]1c1nc(-c2ccc(C(=O)Nc3ccccn3)cc2)c2c(N)nccn12 [Acalabrutinib, acalabrutinib]
16 | 187.9 | COC1=CC(=O)C[C@@H](C)[C@]12Oc1c(Cl)c(OC)cc(OC)c1C2=O [Griseofulvin, griseofulvin]

same assay, conditions: binary system with 0.5% polymer 101; incubation 6 h

Row | Concentration of the target in the solution measured after different incubation time [µg/mL] | Structure (SMILES)
17 | 197.8 | CC#CC(=O)N1CCC[C@H]1c1nc(-c2ccc(C(=O)Nc3ccccn3)cc2)c2c(N)nccn12 [Acalabrutinib, acalabrutinib]
18 | 171.7 | COC1=CC(=O)C[C@@H](C)[C@]12Oc1c(Cl)c(OC)cc(OC)c1C2=O [Griseofulvin, griseofulvin]

same assay, conditions: binary system with 0.5% polymer 102; incubation 0.5 h

Row | Concentration of the target in the solution measured after different incubation time [µg/mL] | Structure (SMILES)
19 | 28.6 | Cc1c(C)c2c(c(C)c1O)CC[C@@](C)(CCC[C@H](C)CCC[C@H](C)CCCC(C)C)O2 [Vitamin E, vitamin E]
20 | 566.6 | CC#CC(=O)N1CCC[C@H]1c1nc(-c2ccc(C(=O)Nc3ccccn3)cc2)c2c(N)nccn12 [Acalabrutinib, acalabrutinib]
21 | 24.1 | COC1=CC(=O)C[C@@H](C)[C@]12Oc1c(Cl)c(OC)cc(OC)c1C2=O [Griseofulvin, griseofulvin]

same assay, conditions: binary system with 0.5% polymer 102; incubation 3 h

Row | Concentration of the target in the solution measured after different incubation time [µg/mL] | Structure (SMILES)
22 | 57.9 | Cc1c(C)c2c(c(C)c1O)CC[C@@](C)(CCC[C@H](C)CCC[C@H](C)CCCC(C)C)O2 [Vitamin E, vitamin E]
23 | 580.9 | CC#CC(=O)N1CCC[C@H]1c1nc(-c2ccc(C(=O)Nc3ccccn3)cc2)c2c(N)nccn12 [Acalabrutinib, acalabrutinib]
24 | 23.2 | COC1=CC(=O)C[C@@H](C)[C@]12Oc1c(Cl)c(OC)cc(OC)c1C2=O [Griseofulvin, griseofulvin]

same assay, conditions: binary system with 0.5% polymer 102; incubation 6 h

Row | Concentration of the target in the solution measured after different incubation time [µg/mL] | Structure (SMILES)
25 | 36.4 | Cc1c(C)c2c(c(C)c1O)CC[C@@](C)(CCC[C@H](C)CCC[C@H](C)CCCC(C)C)O2 [Vitamin E, vitamin E]
26 | 608.2 | CC#CC(=O)N1CCC[C@H]1c1nc(-c2ccc(C(=O)Nc3ccccn3)cc2)c2c(N)nccn12 [Acalabrutinib, acalabrutinib]
27 | 28.6 | COC1=CC(=O)C[C@@H](C)[C@]12Oc1c(Cl)c(OC)cc(OC)c1C2=O [Griseofulvin, griseofulvin]

same assay, conditions: binary system with 0.5% polymer 103; incubation 0.5 h

Row | Concentration of the target in the solution measured after different incubation time [µg/mL] | Structure (SMILES)
28 | 292.1 | CC#CC(=O)N1CCC[C@H]1c1nc(-c2ccc(C(=O)Nc3ccccn3)cc2)c2c(N)nccn12 [Acalabrutinib, acalabrutinib]
29 | 51.8 | COC1=CC(=O)C[C@@H](C)[C@]12Oc1c(Cl)c(OC)cc(OC)c1C2=O [Griseofulvin, griseofulvin]

same assay, conditions: binary system with 0.5% polymer 103; incubation 3 h

Row | Concentration of the target in the solution measured after different incubation time [µg/mL] | Structure (SMILES)
30 | 321.4 | CC#CC(=O)N1CCC[C@H]1c1nc(-c2ccc(C(=O)Nc3ccccn3)cc2)c2c(N)nccn12 [Acalabrutinib, acalabrutinib]
31 | 39.8 | COC1=CC(=O)C[C@@H](C)[C@]12Oc1c(Cl)c(OC)cc(OC)c1C2=O [Griseofulvin, griseofulvin]

same assay, conditions: binary system with 0.5% polymer 103; incubation 6 h

Row | Concentration of the target in the solution measured after different incubation time [µg/mL] | Structure (SMILES)
32 | 246.4 | CC#CC(=O)N1CCC[C@H]1c1nc(-c2ccc(C(=O)Nc3ccccn3)cc2)c2c(N)nccn12 [Acalabrutinib, acalabrutinib]
33 | 39.1 | COC1=CC(=O)C[C@@H](C)[C@]12Oc1c(Cl)c(OC)cc(OC)c1C2=O [Griseofulvin, griseofulvin]

same assay, conditions: binary system with 0.5% polymer 106; incubation 0.5 h

Row | Concentration of the target in the solution measured after different incubation time [µg/mL] | Structure (SMILES)
34 | 184.1 | CC#CC(=O)N1CCC[C@H]1c1nc(-c2ccc(C(=O)Nc3ccccn3)cc2)c2c(N)nccn12 [Acalabrutinib, acalabrutinib]
35 | 67.9 | COC1=CC(=O)C[C@@H](C)[C@]12Oc1c(Cl)c(OC)cc(OC)c1C2=O [Griseofulvin, griseofulvin]

same assay, conditions: binary system with 0.5% polymer 106; incubation 3 h

Row | Concentration of the target in the solution measured after different incubation time [µg/mL] | Structure (SMILES)
36 | 124.3 | CC#CC(=O)N1CCC[C@H]1c1nc(-c2ccc(C(=O)Nc3ccccn3)cc2)c2c(N)nccn12 [Acalabrutinib, acalabrutinib]
37 | 62.8 | COC1=CC(=O)C[C@@H](C)[C@]12Oc1c(Cl)c(OC)cc(OC)c1C2=O [Griseofulvin, griseofulvin]

same assay, conditions: binary system with 0.5% polymer 106; incubation 6 h

Row | Concentration of the target in the solution measured after different incubation time [µg/mL] | Structure (SMILES)
38 | 159.4 | CC#CC(=O)N1CCC[C@H]1c1nc(-c2ccc(C(=O)Nc3ccccn3)cc2)c2c(N)nccn12 [Acalabrutinib, acalabrutinib]
39 | 60.7 | COC1=CC(=O)C[C@@H](C)[C@]12Oc1c(Cl)c(OC)cc(OC)c1C2=O [Griseofulvin, griseofulvin]

same assay, conditions: binary system with 0.5% polymer 107; incubation 0.5 h

Row | Concentration of the target in the solution measured after different incubation time [µg/mL] | Structure (SMILES)
40 | 497.8 | CC#CC(=O)N1CCC[C@H]1c1nc(-c2ccc(C(=O)Nc3ccccn3)cc2)c2c(N)nccn12 [Acalabrutinib, acalabrutinib]
41 | 109.2 | COC1=CC(=O)C[C@@H](C)[C@]12Oc1c(Cl)c(OC)cc(OC)c1C2=O [Griseofulvin, griseofulvin]

same assay, conditions: binary system with 0.5% polymer 107; incubation 3 h

Row | Concentration of the target in the solution measured after different incubation time [µg/mL] | Structure (SMILES)
42 | 171.6 | CC#CC(=O)N1CCC[C@H]1c1nc(-c2ccc(C(=O)Nc3ccccn3)cc2)c2c(N)nccn12 [Acalabrutinib, acalabrutinib]
43 | 93.9 | COC1=CC(=O)C[C@@H](C)[C@]12Oc1c(Cl)c(OC)cc(OC)c1C2=O [Griseofulvin, griseofulvin]

same assay, conditions: binary system with 0.5% polymer 107; incubation 6 h

Row | Concentration of the target in the solution measured after different incubation time [µg/mL] | Structure (SMILES)
44 | 167.1 | CC#CC(=O)N1CCC[C@H]1c1nc(-c2ccc(C(=O)Nc3ccccn3)cc2)c2c(N)nccn12 [Acalabrutinib, acalabrutinib]
45 | 88.6 | COC1=CC(=O)C[C@@H](C)[C@]12Oc1c(Cl)c(OC)cc(OC)c1C2=O [Griseofulvin, griseofulvin]

same assay, conditions: binary system with 0.5% polymer 110; incubation 0.5 h

Row | Concentration of the target in the solution measured after different incubation time [µg/mL] | Structure (SMILES)
46 | 427.6 | CC#CC(=O)N1CCC[C@H]1c1nc(-c2ccc(C(=O)Nc3ccccn3)cc2)c2c(N)nccn12 [Acalabrutinib, acalabrutinib]
47 | 27.1 | COC1=CC(=O)C[C@@H](C)[C@]12Oc1c(Cl)c(OC)cc(OC)c1C2=O [Griseofulvin, griseofulvin]

same assay, conditions: binary system with 0.5% polymer 110; incubation 3 h

Row | Concentration of the target in the solution measured after different incubation time [µg/mL] | Structure (SMILES)
48 | 429.7 | CC#CC(=O)N1CCC[C@H]1c1nc(-c2ccc(C(=O)Nc3ccccn3)cc2)c2c(N)nccn12 [Acalabrutinib, acalabrutinib]
49 | 23.6 | COC1=CC(=O)C[C@@H](C)[C@]12Oc1c(Cl)c(OC)cc(OC)c1C2=O [Griseofulvin, griseofulvin]

same assay, conditions: binary system with 0.5% polymer 110; incubation 6 h

Row | Concentration of the target in the solution measured after different incubation time [µg/mL] | Structure (SMILES)
50 | 460.8 | CC#CC(=O)N1CCC[C@H]1c1nc(-c2ccc(C(=O)Nc3ccccn3)cc2)c2c(N)nccn12 [Acalabrutinib, acalabrutinib]
51 | 26.3 | COC1=CC(=O)C[C@@H](C)[C@]12Oc1c(Cl)c(OC)cc(OC)c1C2=O [Griseofulvin, griseofulvin]
